# Test results as given in patent publication US20250213608A1, “VANADYL SULFATE COMPOSITIONS AND METHODS OF USE THEREFOR FOR THE TREATEMENT AND PREVENTION OF AGING-RELATED DISEASES AND CANCER” (The University of Chicago, priority 2022, published 2025).
# Entries after “also recorded” stand apart in the source; their conditions may differ.
# Columns and labels:
# [1] = system: human fibroblast BJ cells with therapy-induced senescence by doxorubicin; experiment: Screen for senolytic effect in cells with therapy-induced senescence; assay type: cell-based; conditions: senescent BJ cells versus control uninduced cells; FIG. 1A, 2A
# Method: (§1) Experiments were conducted during development of embodiments herein to screen for diet-derived dietary substances, natural products, blood chemicals, etc. that provide senolytic activity with reduced “off-target” toxic side effects. A library of diet-derived blood chemicals was screened to identify compounds that selectively induce cell death in human fibroblast BJ cells with therapy-induced senescence by doxorubicin (FIG. 1A). The top candidates identified were tested in a second screen (FIG. 1B) using human fibroblast HCA2 cells with senescence induced by Nutlin3a (p53 activator), RO3306 (CDK1 inhibitor), and BI2436 (PLK1 inhibitor).
# (§2) Experiments were conducted during development of embodiments herein to screen for natural products that provide senolytic activity. A library of diet-derived blood chemicals was screened to identify compounds that selectively induce cell death in human fibroblast BJ cells with therapy-induced senescence by doxorubicin (FIG. 1A). The top candidates identified were tested in a second screen (FIG. 1B) using human fibroblast HCA2 cells with senescence induced by Nutlin3a (p53 activator), RO3306 (CDK1 inhibitor), and BI2436 (PLK1 inhibitor). […] Temporal mechanistic studies of VS were also conducted (FIG. 8A-B).
# [2] = system: human fibroblast HCA2 cells with senescence induced by Nutlin3a, RO3306 and BI2436; experiment: Second screen for senolytic effect in induced-senescent HCA2 cells; assay type: cell-based; conditions: senescent HCA2 cells versus control uninduced cells; FIG. 1B, 2B
# Method: as §1, §2
# [3] = system: aged mice; experiment: Aging-related phenotypes in aged mice after oral gavage; assay type: in vivo
# Description: In some embodiments, provided herein is the administration of VS as a pharmaceutical or nutraceutical composition to treat or prevent pathogenic senescence-related diseases (e.g., liver and lung fibrosis, atherosclerosis, diabetes, osteoarthritis, etc.). In some embodiments, provided herein is the administration of VS as a pharmaceutical or nutraceutical composition to treat or prevent various diverse human cancers, alone or in combination with anti-cancer therapies that result in therapy-induced senescence.
# [4] = system: bleomycin-induced lung fibrosis; experiment: Bleomycin-induced lung fibrosis; assay type: in vivo; conditions: FIG. 4A-D
# [5] = system: CCl4-induced liver fibrosis; experiment: CCl4-induced liver fibrosis; assay type: in vivo; conditions: FIG. 5A-D
# [6] = system: A549 xenograft; experiment: A549 xenograft model combined with senescence induction; assay type: in vivo; conditions: FIG. 6A-B
# [7] = system: senescent cells; experiment: Rescue of VS-induced cell death by NAC; assay type: cell-based; conditions: FIG. 7A-C
# Method: as §2
# [8] = system: apolipoprotein E-deficient (ApoE-/-) mice; experiment: Atherosclerosis model in ApoE-/- mice; assay type: in vivo
# Description: Atherosclerosis-prone apolipoprotein E-deficient (ApoE^−/−) mice were used that display poor lipoprotein clearance with subsequent accumulation of cholesterol ester-enriched particles in the blood, which promote the development of atherosclerotic plaques. Compared to wild type control mice with no disease (WT-ND), the ApoE−/− mice developed atherosclerosis-like disease with accumulation of cholesterol that was stained with Sudan IV showing orange-red color (FIG. 9A, left).
# [9] = system: animal models; conditions: cited from earlier work
# [10] = system: type 2 diabetes; conditions: cited from earlier work
# [11] = aged mice, oral gavage, kidney tissues
smiles,measurement,setting,value
"O=S(=O)([O-])[O-].[O]=[V+2] [VS, vanadyl sulfate]",cell death in senescent BJ cells,[1],selectively triggers cell death; also recorded: selectively induced cell death
same,cell death in senescent HCA2 cells,[2],selectively triggers cell death; also recorded: selectively induced cell death
same,aging / senescent cells in vivo,[3]; FIG. 3A-F,ameliorates aging by eliminating senescent cells
same,aging-related phenotypes,"[3]; aged mice, oral gavage",improved
same,serum urea levels,"[3]; aged mice, oral gavage",reducing
same,gene expression level of CDK inhibitor p16INK4a,[3]; [11],reducing
same,gene expression level of inflammatory cytokine IL-6,[3]; [11],reducing
same,therapeutic efficacy in bleomycin-induced lung fibrosis,[4],shows therapeutic efficacy
same,therapeutic efficacy in CCl4-induced liver fibrosis,[5],shows therapeutic efficacy
same,tumor growth,[6],suppresses tumor growth
same,rescue of VS-induced cell death by NAC,[7],can be rescued by NAC
same,accumulation of cholesterol in atherosclerotic plaques,"[8]; ApoE-/- mice, Sudan IV staining, quantitation, FIG. 9A",reduced
same,overall total cholesterol level,"[8]; ApoE-/- mice, FIG. 9B",reduced
same,therapeutic efficacy in atherosclerosis model,[8]; FIG. 9A-B,provides therapeutic efficacy
same,hyperglycemia,[9],reduce
same,insulin resistance,[9],reduce
same,hepatic and muscle insulin sensitivity,[10],improve
